Results from paper PMC6320925, “Synthesis, In Vitro Biological Evaluation, and Oxidative Transformation of New Flavonol Derivatives: The Possible Role of the Phenyl-N,N-Dimethylamino Group” (Molecules, 2018).

How the values were obtained:
[1] = DPPH radical scavenging assay; conditions: from inhibition percentage at 90 min, concentration range 10–200 µM
Description: The method used for the DPPH radical scavenging assay was adopted from Clarke et al., with modifications. A total of 180 µL freshly made 0.2 mM DPPH solution in methanol was added to 20 µL of the investigated compounds in various concentrations (10, 20, 50, 100, and 200 µM) in DMSO. After a gentle, 10-s mixing period, the plate was kept in the dark for 90 min. and the absorbance was read at 515 nm using a Multiskan GO microplate spectrophotometer (Thermo Fisher Scientific, Waltham, MA, USA) at 0, 1, 2, 3, 4, 5, 10, 15, 30, 45, 60, 75, and 90 min. Blanks (20 µL DMSO with 180 µL MeOH) and quercetin standards in the same concentration as the tested compounds were measured simultaneously. The IC50 values were calculated based on the inhibition percentage measured at 90 min. The measurements were performed in duplicate and repeated three times.

[2] = FRAP assay (ferric reducing antioxidant power); conditions: all tested concentrations (10–200 µM), 30 min incubation
Description: The ferric reducing antioxidant power of the compounds was tested with a modified method of Benzie and Strain [37]. The FRAP reagent consisted of 10 mL acetate buffer (300 mM, pH 3.6), 1 mL TPTZ solution (10 mM) in 40 mM HCl, and 1 mL FeCl3 (10 mM). The mixture was incubated at 37 °C for 15 min and used on the same day. The reaction mixture was prepared by 20 µL of the investigated compound (10, 20, 50, 100, and 200 µM) and 180 µL activated FRAP reagent in a 96-well plate. Following a 30 min incubation period, the absorbance was measured at 593 nm by a Multiskan GO microplate spectrophotometer (Thermo Fisher Scientific, Waltham, MA, USA). Iron (II) sulfate heptahydrate was used as the standard in different concentrations (0.5, 1, 5, 10, 50, 100, and 500 µM). The FRAP values are expressed as µM ferrous equivalents. The experiments were run in duplicate and repeated three times.

[3] = system: H9c2 cells; experiment: MTT cell viability assay; type: cell-based; conditions: 20 µM, 12 h
Description: (§1) The MTT assay was used to determine the effect of the investigated compounds on the cell viability. H9c2 cells (ATCC, CRL-1446, LGC Standards GmbH, Wesel, Germany) were seeded into 96-well plates at a density of 6000 cells/well in 200 µL media (DMEM, high glucose, pyruvate from Thermo Fischer Scientific with 10% FBS and supplemented with penicillin and streptomycin) and cultured overnight. The flavonols were added to the cells in 20 µM concentration. After 12 h, 20 μL of MTT solution ([…] in PBS) was added to each well, and the plates were incubated for 4 h. Afterwards, the media was carefully removed and 100 μL DMSO was added to each well to dissolve the formazan crystals. Absorbance was measured at 540 and 630 nm using a Synergy HT plate reader (BioTek, Winooski, VT, USA). The tests were carried out in triplicate and repeated two times.

[4] = MTT cell viability assay; type: cell-based; conditions: rat, H9c2 cells, read-out: cell viability compared to the control
Description: as §1

[5] = design: method as in PMID 28383511; conditions: cited from earlier work
[6] = design: method as in ref 29 (Deng et al.); conditions: ref 29 (Deng et al.); cited from earlier work
[7] = ORAC assay (oxygen radical absorbance capacity); conditions: for ORAC value compared to quercetin: 10 µM; for ORAC value (AUCnet): 2 and 10 µM
Description: The oxygen radical absorbance capacity was evaluated using the ORAC assay. The test was carried out in a black 96-well plate with a black bottom. The stock solutions of 50 nM fluorescein and 180 mM AAPH in phosphate buffer (75 mM, pH 7.00) were prepared freshly and used on the same day. To each well, 20 µL of compound in ACN (2 and 10 µM) was added to 160 µL fluorescein. In the case of blank samples, 20 µL of ACN was added. The plate was incubated for 15 min at 37 °C, and then the 20 µL AAPH solution was rapidly added to each well to initiate the reaction. The fluorescence was monitored at 485 nm excitation and 520 nm emission wavelength for 2 h every 2 min by the FLUOstar OPTIMA (BMG Labtech, Ortenberg, Germany) plate reader. The assay was performed in duplicate and repeated three times. The area under the curve (AUC) was calculated as follows:AUC = 0.5 + (A1/A0) + (A2/A0) + (A3/A0) + ⋯ + (An/A0),(1) where A0 is the fluorescence reading at 0 min and An is the fluorescence reading at n min. The reported ORAC values were calculated by subtracting the blank AUC from the sample AUC and expressed as AUCnet. AUCnet = AUCsample − AUCblank(2)

[8] = ABTS radical scavenging assay; conditions: from inhibition percentage at 120 min, concentration range 10–200 µM
Description: To measure the ABTS radical scavenging activity, the work of Sugahara et al. and Re et al. was followed closely, applying few alterations. A mixture containing 7 mM ABTS and 2.45 mM K2S2O8 in water was kept in the dark for 16 h to form ABTS^•+. The working solution was prepared by adding 150 µL of ABTS^•+ solution to 2.9 mL MeOH. Aliquots of 180 µL of this working solution were pipetted into wells containing 20 µL of test samples in DMSO with different concentrations (10, 20, 50, 100, and 200 µM). Absorbance was measured at 737 nm after 10 s mixing using a Multiskan GO microplate spectrophotometer (Thermo Fisher Scientific, Waltham, MA, USA) at 0, 1, 2, 3, 4, 5, 10, 15, 30, 45, 60, 75, 90, 105, and 120 min. Quercetin was used as the standard. The IC50 values were calculated based on the inhibition percentage measured at 120 min. The experiments were carried out in duplicate and repeated three times.

[9] = Chemical Fenton reaction (biomimetic model of phase I biotransformation); type: in vitro ADME; conditions: ESI-MS and LC-MS detection
Description: The Fenton reaction of the compounds was carried out based on a method reported previously by Csepanyi et al.. The reaction mixture consisted of 400 μL 2.5 mM of the investigated compound in ACN, 50 μL 20 mM FeCl3, 50 μL 20 mM EDTA-Na2, and 500 μL 10 mM ascorbic acid in ACN/H2O (50:50) and 2 μL 30% hydrogen peroxide. The reaction mixture was stirred at room temperature at 700 rpm. Samples were drawn at 2, 24, 72, and 144 h and were diluted with ACN/H2O (50:50) and analyzed immediately by an API 2000 Triple Quadrupole mass spectrometer (Applied Biosystems, Waltham, MA, USA) equipped with a syringe pump with the following parameters: 20 μL/min flow rate, 10 PSI curtain gas, 20 V declustering potential, 4000 V ion spray voltage, 400 V focusing potential, and 200 °C ion source temperature. The positive ion electrospray mass spectra were recorded in the range of m/z 100–500 using Analyst 1.5.1. Software (AB SCIEX, Concord, ON, Canada). In additional experiments, the reaction mixture was separated and analyzed with an LTQ XL linear ion trap mass spectrometer coupled with the Accela LC system (Thermo Fisher Scientific, Waltham, MA, USA). The HPLC separation was performed using a Kinetex XB-C18 2.6 μm column, 0.1% formic acid in water, and ACN with 0.1% formic acid with gradient elution, and the flow rate was set to 300 μL/min. […]

[10] = design: method as in ref 20 (Culhaoglu et al.); conditions: ref 20 (Culhaoglu et al.); cited from earlier work
[11] = design: method as in ref 20 (Culhaoglu et al.); conditions: ref 20 (Culhaoglu et al.); cited from earlier work; remark: listed apart in the source

SMILES	IC50 DPPH scavenging [1]	FRAP value [2]	cytotoxic activity (cell viability) [3]	melting point [°C]	ORAC value (AUCnet) [7]	further results
COCc1ccc(-c2ccc3c(=O)c(O)c(-c4cc(OC)c(OC)c(OC)c4)oc3c2)cc1 [6f, 3-Hydroxy-7-[4-(methoxymethyl)phenyl]-2-(3,4,5-trimethoxyphenyl)-4H-chromen-4-one]	lower antioxidant potency	significantly lower ferrous equivalents	significantly decreased the viability of cells	208.1 to 209.2	–	–
COCc1ccc(-c2ccc3c(=O)c(O)c(-c4ccc(OC)c(OC)c4)oc3c2)cc1 [6d, 2-(3,4-Dimethoxyphenyl)-3-hydroxy-7-[4-(methoxymethyl)phenyl]-4H-chromen-4-one]	–	significantly lower ferrous equivalents	significantly decreased the viability of cells	212.1 to 214.2	–	viability at 12 h, 20 µM [4]: 46%
CN(C)c1ccc(-c2cc(=O)c3ccccc3o2)cc1 [4′-N,N-dimethylamino-flavon]	–	–	–	–	–	radical scavenger activity [5]: good radical scavenger
O=c1c(O)c(-c2ccc(O)c(O)c2)oc2cc(O)cc(O)c12 [quercetin]	–	–	–	–	–	FRAP value relative to the methylated form [6]: 650 times
COc1ccc(-c2oc3ccc(-c4cccc(N(C)C)c4)cc3c(=O)c2O)cc1OC [6a, 2-(3,4-Dimethoxyphenyl)-6-[3-(dimethylamino)phenyl]-3-hydroxy-4H-chromen-4-one]	–	highest FRAP values	did not exhibit cytotoxic activity	187.7 to 188.8	highest ORAC value	ORAC value compared to quercetin [7]: comparable to quercetin
COc1ccc(-c2oc3cc(-c4cccc(N(C)C)c4)ccc3c(=O)c2O)cc1OC [6c, 2-(3,4-Dimethoxyphenyl)-7-[3-(dimethylamino)phenyl]-3-hydroxy-4H-chromen-4-one]	lowest IC50 value	highest FRAP values	did not exhibit cytotoxic activity	–	fourth highest capacity	IC50 ABTS radical cation scavenging [8]: lowest IC50 value; oxidative transformation products (potential metabolites) [9]: two potential metabolites were detected
COc1cc(-c2oc3cc(-c4cccc(N(C)C)c4)ccc3c(=O)c2O)cc(OC)c1OC [6e, 7-[3-(Dimethylamino)phenyl]-3-hydroxy-2-(3,4,5-trimethoxyphenyl)-4H-chromen-4-one]	lower antioxidant potency	highest FRAP values	did not exhibit cytotoxic activity	179.5 to 181.8	highest ORAC value	ORAC value compared to quercetin [7]: comparable to quercetin
CN(C)c1ccc(-c2oc3ccccc3c(=O)c2O)cc1 [4′-N,N-dimethylamino-3-OH-flavon]	–	–	–	–	–	scavenging of ABTS radicals [10]: significant scavenging; scavenging of DPPH radicals [11]: significant scavenging
COCc1ccc(-c2ccc3oc(-c4ccc(OC)c(OC)c4)c(O)c(=O)c3c2)cc1 [6b, 2-(3,4-Dimethoxyphenyl)-3-hydroxy-6-[4-(methoxymethyl)phenyl]-4H-chromen-4-one]	–	significantly lower ferrous equivalents	significantly decreased the viability of cells	192.8 to 194.3	highest ORAC value	–
